Numbered stars: 1 amine (or outer) side, 2 acyl side, 3 side chain; on linkers, the order of the positions; unused ones are H or OH. Bridge positions count the residues as written; N and C are the ends. Square brackets hold non-standard residues; d marks the D form. Peptide text beside a SMILES is read from it. * marks the point of attachment. pTerphenylCO(4''-OnC5H11) = CCCCCOc1ccc(-c2ccc(-c3ccc(C(=O)*)cc3)cc2)cc1; Orn(4R-OH,5R-OH) = O=C([C@H](C[C@@H](O)[C@@H](O)N[*:3])N[*:1])[*:2]; hTyr(3S-OH,4S-OH) = N[C@H](C(=O)O)[C@H](O)[C@@H](O)c1ccc(O)cc1; Pro(3S-OH,4S-Me) = C[C@H]1CN[C@H](C(=O)O)[C@H]1O; Hyp = O=C(O)[C@@H]1C[C@@H](O)CN1
Experiment: Dissolution of anidulafungin powder in the polysorbate 80 solution
Format: physicochemical
Procedure: Next the active ingredient is added. […] Even in small scale experiments the dissolution needs more than 4 hours. The dissolution can be accelerated by a pre-treatment of the active ingredient, preferably by dispersing the active ingredient in a pharmaceutically acceptable solvent, preferably in WFI, e.g. in an ultrasonic bath, and using this dispersion in step (b).
Dissolve the pre-weighed amount of polysorbate 80 in about 75% of total amount of WFI, rinse weighing container with 100 ml of WFI into reactor; stir not less than 20 min until excipient completely dissolves with a mechanical stirrer at a speed of 150-190 rpm.
Add about 7% of total amount of WFI to the pre-weighed amount of the active pharmaceutical ingredient (API) anidulafungin in glass bottle, screw the cap, shake bottle well in order to promote wetting of API and transfer it into ultrasonic bath for homogenisation. Take not less than 3 cycles of homogenisation for 10 min. Slightly shake the bottle after each cycle, in order to rinse API particles from the walls of the bottle's upper part into suspension. After white, well-homogenized suspension is obtained, transfer it into intermediate product preparation reactor, stir with a mechanical stirrer at a speed of 150-190 rpm until substance dissolves completely.
100% of the particles were below 750 µm. Particle sizes were analysed by laser diffraction with dry dispersion using a Malvern Mastersizer 3000 instrument. The size distribution was determined from the light scattering data using the theory of light scattering developed by Gustav Mie. […] It remained an undissolved residue of about 5% which corresponds to particles with more than about 400 µm. About 9-10% of the particles were bigger than 350 µm.
In a second experiment an aliquot of the anidulafungin powder was sieved through a 50 mesh sieve, corresponding to a mesh width of 297 µm to remove the bigger particles.

CCCCCOc1ccc(-c2ccc(-c3ccc(C(=O)N[C@H]4C[C@@H](O)[C@@H](O)NC(=O)[C@@H]5[C@@H](O)[C@@H](C)CN5C(=O)[C@H]([C@@H](C)O)NC(=O)[C@H]([C@H](O)[C@@H](O)c5ccc(O)cc5)NC(=O)[C@@H]5C[C@@H](O)CN5C(=O)[C@H]([C@@H](C)O)NC4=O)cc3)cc2)cc1 [anidulafungin powder, anidulafungin] ({pTerphenylCO(4''-OnC5H11)}-[Orn(4R-OH,5R-OH)]T[Hyp][hTyr(3S-OH,4S-OH)]T[Pro(3S-OH,4S-Me)]; lactam 1-C)
dissolution in the polysorbate 80 solution (after treatment of the powder in an ultrasonic bath): complete dissolution could be achieved | time needed for dissolution (particles with a particle size of more than 400 µm, small scale experiments, solubilizing agent added): more than 4 hours | undissolved residue (polysorbate 80 solution, vigorous stirring for 4 h, powder D90 339 µm): about 5% | dissolution in the polysorbate 80 solution (vigorous stirring for 4 h, powder D90 339 µm, unsieved): could not be dissolved completely

CCCCCOc1ccc(-c2ccc(-c3ccc(C(=O)N[C@H]4C[C@@H](O)[C@@H](O)NC(=O)[C@@H]5[C@@H](O)[C@@H](C)CN5C(=O)[C@H]([C@@H](C)O)NC(=O)[C@H]([C@H](O)[C@@H](O)c5ccc(O)cc5)NC(=O)[C@@H]5C[C@@H](O)CN5C(=O)[C@H]([C@@H](C)O)NC4=O)cc3)cc2)cc1 [sieved powder, anidulafungin] ({pTerphenylCO(4''-OnC5H11)}-[Orn(4R-OH,5R-OH)]T[Hyp][hTyr(3S-OH,4S-OH)]T[Pro(3S-OH,4S-Me)]; lactam 1-C)
dissolution in the polysorbate 80 solution (powder sieved through a 50 mesh sieve (297 µm), mechanical stirrer): could be dissolved easily

From patent publication EP3058958B1, “ANIDULAFUNGIN COMPOSITION” (Selectchemie AG, priority 2015, dated 2016)
